In patent US6809111B2, “Prodrugs of COX-2 inhibitors” (Pharmacia Corporation, priority 2001, dated 2004):

Key:
[1] = test system: carrageenan-induced inflammatory response in air pouch; assay: Air-pouch model of inflammation (carrageenan); type: in vivo; conditions: male Lewis rats
Experimental: Male Lewis rats (175-200 g) were used. Air cavities were produced by subcutaneous injection of 20 mL of sterile air into the intrascapular area of the back. An additional 10 mL of air was injected into the cavity every 3 days to keep the space open. Seven days after the initial air injection, 2 mL of a 1% solution of carrageenan (Sigma) dissolved in saline was injected directly into the pouch to produce an inflammatory response. The volume of exudate was measured […]. The differential cell count was determined by Wright-Giemsa staining. PGE2 and 6-keto-PGF1α were determined in the pouch exudates by specific ELISAs (Cayman Chemicals, Ann Arbor, Mich.).

Row | melting point [°C] | SMILES | AIR POUCH TEST % Inhibition @ 20 mg/kg body weight [1] [%]
1 | 57.8 | Cc1ccc(-c2cc(C(F)(F)F)nn2-c2ccc(S(=O)(=O)NCCO)cc2)cc1 [Example 3, N-(2-hydroxyethyl)-4-[5-(4-methylphenyl)-3-(trifluoromethyl)-1H1-pyrazol-1-yl]benzenesulfonamide] | 59
2 | 79.1 | Cc1ccc(-c2cc(C(F)(F)F)nn2-c2ccc(S(=O)(=O)N(CCO)CCO)cc2)cc1 [Example 4, N,N-bis(2-hydroxyethyl)-4-[5-(4-methylphenyl)-3-(trifluoromethyl)-1H-pyrazol-1-yl]benzenesulfonamide] | 10
